Measured values: patent EP0552612A2, “Methods for determining and isolating compounds which bind directly to nucleosolic proteins” (F. HOFFMANN-LA ROCHE AG, priority 1992, dated 1993)
Values belong to the compound of their own block, whether it stands above or below them.

How the values were obtained:
[1] = tested on: retinoic acid receptors α, β or γ; assay: Competitive binding with ³H-T-RA to nucleosol of RAR-transfected COS-1 cells; design: species or system human; conditions: concentrations as high as 1 µM; 5 nM ³H-T-RA, 4°C, 30 minutes
Description: Competitive binding studies were performed as follows. COS-1 cells were transfected with the cDNAs encoding RARs α, β or γ in the expression vector pSG5 (described in Example 1). The cells were cultured for 72 hours and the nucleosol fraction isolated (14). Nucleosol fractions were incubated (14) at 4°C for 30 minutes with 5 nM ³H-T-RA with various concentrations of unlabeled 13-cis RA. Bound was separated from free radioactivity using PD10 columns as described in Example 1 above.

RARα [2] = molecular target: T1, RARα (Homo sapiens, UniProt P10276); assay: Displacement of radiolabel from nucleosol of COS-1 cells treated in culture with ³H-T-RA; conditions: excess unlabeled T-RA (10 µM), 4 hours at 4°C
T1 sequence (P10276 1-462): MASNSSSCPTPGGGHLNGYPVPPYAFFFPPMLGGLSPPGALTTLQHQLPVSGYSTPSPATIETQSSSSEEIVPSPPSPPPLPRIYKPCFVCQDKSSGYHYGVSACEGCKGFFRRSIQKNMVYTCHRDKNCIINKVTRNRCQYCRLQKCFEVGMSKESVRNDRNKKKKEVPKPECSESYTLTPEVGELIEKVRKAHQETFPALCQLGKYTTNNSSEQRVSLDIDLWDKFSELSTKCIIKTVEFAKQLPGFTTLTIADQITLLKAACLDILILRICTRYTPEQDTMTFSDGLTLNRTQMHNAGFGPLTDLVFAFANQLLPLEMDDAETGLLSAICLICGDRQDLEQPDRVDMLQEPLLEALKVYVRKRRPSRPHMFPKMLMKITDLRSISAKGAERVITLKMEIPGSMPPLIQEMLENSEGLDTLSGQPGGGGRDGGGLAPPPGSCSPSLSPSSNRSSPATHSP

RARα [3] = molecular target: T1, RARα; assay: In vitro binding of ³H-T-RA to nucleosol of transfected COS-1 cells; conditions: nucleosol from RARα-transfected COS-1 cells; 10 nM ³H-T-RA, 2 hours at 4°C

SMILES: CC1=C(/C=C/C(C)=C/C=C/C(C)=C\C(=O)O)C(C)(C)CCC1 [13-cis RA, 13-cis retinoic acid]
competition with ³H-T-RA for binding [1]: minimal competition for binding

SMILES: CC1=C(/C=C/C(C)=C/C=C/C(C)=C/C(=O)O)C(C)(C)CCC1 [T-RA, all-trans retinoic acid]
displacement of bound radiolabel (RARα [2]): displaces radioactivity bound in the RARα nucleosol

binding of ³H-T-RA (RARα [3]): considerable binding
SMILES: [3H]C(/C=C(C)/C=C/C1=C(C)CCCC1(C)C)=C([3H])\C(C)=C\C(=O)O [³H-T-RA]
